The results in this text go back to patent US20230172825A1, “COMPOSITION FOR IMPROVING SKIN COMPRISING AMINO ACID COMPLEX AS ACTIVE INGREDIENT” (NATURE IN LAB. INC., priority 2021, published 2023).

Holding throughout (type): cell-based, human
The test system of one assay is collagen type I. Description: Gene expression of collagen type I (real-time PCR). As to conditions: CCD-1064Sk, 24 hours, concentration 100 µg/mℓ; control group 100.0.
A further assay deals with collagen type III. Nature of the assay: Gene expression of collagen type III (real-time PCR). As to conditions: CCD-1064Sk, 24 hours, concentration 100 µg/mℓ; control group 100.0.
In another assay the test system is MMP-1. Description: Inhibition of MMP-1 gene expression in UVA-damaged cells (real-time PCR). As to conditions: UVA-irradiated CCD-1064Sk, 24 hours, concentration 1 µg/mℓ; UVA alone 100.0, control group 50.5.

Protocol for MMP-1: Human dermal fibroblasts (CCD-1064Sk, ATCC® CRL-2076™) were inoculated into a 60-mm dish using IMDM (Welgene, Korea) and cultured for 24 hours, followed by UVA irradiation. Afterwards, the medium was replaced with fresh serum-free IMDM, and samples were each treated at different concentrations and cultured for 24 hours at 37° C. in a 5 % CO2 incubator. After removal of the medium, the cells were collected by using QIAzol™ Lysis Reagent (Qiagen), and RNA thereof was isolated according to the protocol of the manufacturer. After quantifying the isolated RNA, cDNA was synthesized with 1 µg of RNA, followed by Real-time PCR (Applied Biosystems, 7500 FAST Real-Time PCR System).
Protocol for collagen type III: Human dermal fibroblasts (CCD-1064Sk, ATCC® CRL-2076™) were inoculated into a 60 mm dish using IMDM (Welgene, Korea), cultured for 24 hours, and then replaced with fresh serum-free IMDM. […] After removal of the medium, the cells were collected by using QIAzol™ Lysis Reagent (Qiagen), and RNA thereof was isolated according to the protocol of the manufacturer. After quantifying the isolated RNA, cDNA was synthesized with 1 µg of RNA, followed by Real-time PCR (Applied Biosystems, 7500 FAST Real-Time PCR System).

Regarding `O=C1O[C@H]([C@@H](O)CO)C(O)=C1O` [Vitamin C, vitamin C], the “Mean (gene expression of collagen type I)” value in the assay on collagen type I is reported as 134.2. In the assay on collagen type III, the “Mean (gene expression of collagen type III)” value was determined as 135.6.
Regarding `O=C(O[C@@H]1Cc2c(O)cc(O)cc2O[C@@H]1c1cc(O)c(O)c(O)c1)c1cc(O)c(O)c(O)c1` [EGCG], the “Mean (gene expression of MMP-1)” value in the assay on MMP-1 worked out at 56.7.
